Measured values as given in the supplement of paper PMC10307832.

What was measured:
Test in all cases: relative viability (nuclei count vs DMSO), 5 days (fraction); higher = more cells survive
Vemurafenib + Alpelisib = compound: CCCS(=O)(=O)Nc1ccc(F)c(C(=O)c2c[nH]c3ncc(-c4ccc(Cl)cc4)cc23)c1F [Vemurafenib] + Cc1nc(NC(=O)N2CCC[C@H]2C(N)=O)sc1-c1ccnc(C(C)(C)C(F)(F)F)c1 [Alpelisib] (partner 2 µM)
Method in brief: (§1)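 Relative viability divides the nuclei count in treated wells by that in vehicle wells. Lung cancer cell lines were seeded in 1536-well plates, dosed by pin tool the next day, and fixed and stained after 5 days in one step with final 0.05% Triton X-100, 1% formaldehyde and 1 ug/ml Hoechst. Dosing was a single drug or a fixed anchor-drug dose plus five library-drug doses (not always all listed) in √10 steps, and values are medians of duplicate plates imaged at 4×.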

OSI-027 + Decitabine = compound: COc1cccc2cc(-c3nc([C@H]4CC[C@H](C(=O)O)CC4)n4ncnc(N)c34)[nH]c12 [OSI-027] + Nc1ncn([C@H]2C[C@H](O)[C@@H](CO)O2)c(=O)n1 [Decitabine] (partner 2 µM)
Method in brief: as §1

OSI-027 + Crizotinib = compound: COc1cccc2cc(-c3nc([C@H]4CC[C@H](C(=O)O)CC4)n4ncnc(N)c34)[nH]c12 [OSI-027] + C[C@@H](Oc1cc(-c2cnn(C3CCNCC3)c2)cnc1N)c1c(Cl)ccc(F)c1Cl [Crizotinib] (partner 1 µM)
Method in brief: as §1

OSI-027 + Vorinostat = compound: COc1cccc2cc(-c3nc([C@H]4CC[C@H](C(=O)O)CC4)n4ncnc(N)c34)[nH]c12 [OSI-027] + O=C(CCCCCCC(=O)Nc1ccccc1)NO [Vorinostat] (partner 1 µM)
Method in brief: as §1

## UMC-11
Vemurafenib + Alpelisib; first compound 0.03162 µM
  relative viability: 0.954
Vemurafenib + Alpelisib; first compound 0.1 µM
  relative viability: 0.947
Vemurafenib + Alpelisib; first compound 0.3162 µM
  relative viability: 1.09
Vemurafenib + Alpelisib; first compound 1 µM
  relative viability: 0.91
OSI-027 + Decitabine; first compound 0.01 µM
  relative viability: 0.612
OSI-027 + Decitabine; first compound 0.03162 µM
  relative viability: 0.647
OSI-027 + Decitabine; first compound 0.1 µM
  relative viability: 0.52
OSI-027 + Decitabine; first compound 0.3162 µM
  relative viability: 0.492
OSI-027 + Decitabine; first compound 1 µM
  relative viability: 0.417
OSI-027 + Crizotinib; first compound 0.01 µM
  relative viability: 0.499
OSI-027 + Crizotinib; first compound 0.03162 µM
  relative viability: 0.535
OSI-027 + Crizotinib; first compound 0.1 µM
  relative viability: 0.587
OSI-027 + Crizotinib; first compound 0.3162 µM
  relative viability: 0.491
OSI-027 + Crizotinib; first compound 1 µM
  relative viability: 0.378
OSI-027 + Vorinostat; first compound 0.01 µM
  relative viability: 0.379
OSI-027 + Vorinostat; first compound 0.03162 µM
  relative viability: 0.371
OSI-027 + Vorinostat; first compound 0.1 µM
  relative viability: 0.376
OSI-027 + Vorinostat; first compound 0.3162 µM
  relative viability: 0.348
OSI-027 + Vorinostat; first compound 1 µM
  relative viability: 0.275
